The values below come from patent US10774102B2, “Galactoside inhibitor of galectins” (Galecto Biotech AB, priority 2015, dated 2020).

This experiment deals with galectin-3 (Homo sapiens (Human), UniProt P17931). As to the kind of experiment: Fluorescence anisotropy assay of galectin-3 affinity (compound inhibits galectin binding to a fluorescein tagged saccharide probe). The note with it: high affinity probe, 50 nM galectin-3, 100 nM albumin. Here is the method: 100 nM albumin was included as a carrier to prevent protein loss at such low concentration of galectin.
galectin-3, sequence (P17931 whole entry): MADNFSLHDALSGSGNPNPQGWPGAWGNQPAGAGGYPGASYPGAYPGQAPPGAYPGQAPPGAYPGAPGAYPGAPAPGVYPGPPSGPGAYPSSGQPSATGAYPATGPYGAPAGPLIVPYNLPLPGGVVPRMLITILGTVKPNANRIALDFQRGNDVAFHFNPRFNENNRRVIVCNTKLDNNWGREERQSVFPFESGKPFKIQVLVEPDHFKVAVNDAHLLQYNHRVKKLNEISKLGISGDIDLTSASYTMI

A word on the Kd: it is the equilibrium constant for the complex coming apart. Low values mean higher affinity, high ones lower affinity. `[O-][S+](c1cncc(Cl)c1)[C@H]1OC(CO)[C@H](O)[C@H](n2cc(-c3cc(F)c(F)c(F)c3)nn2)C1O` (single isomer, unassigned; isomer 2) [Example 94, 5-Chloropyridin-3-yl 3-deoxy-3-[4-(3,4,5-trifluorophenyl)-1H-1,2,3-triazol-1-yl]-α-D-galactopyranosyl sulfoxide, isomer 2] had a dissociation constant (Kd) of 41 nM.
The value for `OC[C@H]1O[C@H](SC2CCCCC2)[C@H](O)[C@@H](n2cc(-c3cc(F)c(F)c(F)c3)nn2)[C@H]1O` [Example 35, Cyclohexyl 3-deoxy-3-[4-(3,4,5-trifluorophenyl)-1H-1,2,3-triazol-1-yl]-1-thio-α-D-galactopyranoside] was 440 nM; that for `CN(C)c1cccc2cc(S(=O)(=O)[C@H]3OC(CO)[C@H](O)[C@H](n4cc(-c5cc(F)c(F)c(F)c5)nn4)C3O)ccc12` (stereo partly drawn) [Example 95, 5-Dimethylamino-naphtalen-2-yl 3-deoxy-3-[4-(3,4,5-trifluorophenyl)-1H-1,2,3-triazol-1-yl]-α-D-galactopyranosyl sulfone] was 960 nM; that for `[O-][S+](c1cccc(Br)c1)[C@H]1O[C@H](CO)[C@H](O)[C@H](n2cc(-c3cc(F)c(F)c(F)c3)nn2)[C@H]1O` (stereo partly drawn) [Example 39, 3-Bromophenyl 3-deoxy-3-[4-(3,4,5-trifluorophenyl)-1H-1,2,3-triazol-1-yl]-α-D-galactopyranosyl sulfoxide] was 23 nM.
To `OCC1O[C@H](Sc2ccc3ccccc3c2)C(O)[C@@H](n2cc(-c3cc(F)c(F)c(F)c3)nn2)[C@H]1O` (stereo partly drawn) [Example 12, 2-Naphtyl 3-deoxy-3-[4-(3,4,5-trifluorophenyl)-1H-1,2,3-triazol-1-yl]-1-thio-α-D-galactopyranoside] belongs 180 nM.
The value for `O=c1oc2ccc(F)c(F)c2cc1CO[C@@H]1[C@@H](O)[C@@H](Sc2ccc(Cl)c(Cl)c2)O[C@H](CO)[C@@H]1O` [Example 99, 3,4-Dichlorophenyl 3-O-[(5,6-Difluoro-2-oxo-3-chromenyl)methyl]-1-thio-α-D-galactopyranoside] was 920 nM.
For `OC[C@H]1O[C@H](Sc2ccc(Br)cc2)[C@H](O)[C@@H](n2cc(-c3cc(F)c(F)c(F)c3)nn2)[C@H]1O` [Example 15, 4-Bromophenyl 3-deoxy-3-[4-(3,4,5-trifluorophenyl)-1H-1,2,3-triazol-1-yl]-1-thio-α-D-galactopyranoside], binding was characterised by a dissociation constant (Kd) of 520 nM.
The value for `Cc1cccc(S[C@H]2O[C@H](CO)[C@H](O)[C@H](n3cc(-c4cc(F)c(F)c(F)c4)nn3)[C@H]2O)c1` [Example 13, 3-Methylphenyl 3-deoxy-3-[4-(3,4,5-trifluorophenyl)-1H-1,2,3-triazol-1-yl]-1-thio-α-D-galactopyranoside] was 240 nM; that for `O=S(=O)(c1ccc(Cl)c(Cl)c1)[C@H]1O[C@H](CO)[C@H](O)[C@H](n2cc(-c3c(F)c(F)c(F)c(F)c3F)nn2)[C@H]1O` [Example 53, 3,4-Dichlorophenyl 3-deoxy-3-[4-(2,3,4,5,6-pentafluorophenyl)-1H-1,2,3-triazol-1-yl]-α-D-galactopyranosyl sulfone] was 13 nM; that for `CCOC(=O)c1cn([C@@H]2[C@@H](O)[C@@H](Sc3ccc(Cl)c(Cl)c3)O[C@H](CO)[C@@H]2O)nn1` [Example 97, 3,4-Dichlorophenyl 3-deoxy-3-[4-(ethoxycarbonyl)-1H-1,2,3-triazol-1-yl]-1-thio-α-D-galactopyranoside] was 3500 nM.
For `OC[C@H]1O[C@H](Sc2ccc(OC(F)(F)F)cc2)[C@H](O)[C@@H](n2cc(-c3cc(F)c(F)c(F)c3)nn2)[C@H]1O` [Example 31, 4-Trifluoromethoxyphenyl 3-deoxy-3-[4-(3,4,5-trifluorophenyl)-1H-1,2,3-triazol-1-yl]-1-thio-α-D-galactopyranoside], binding was characterised by a dissociation constant (Kd) of 280 nM.
The value for `OC[C@H]1O[C@H](Oc2cccc(Cl)c2)[C@H](O)[C@@H](n2cc(-c3cc(F)c(F)c(F)c3)nn2)[C@H]1O` [Example 33, 3-Chlorophenyl 3-deoxy-3-[4-(3,4,5-trifluorophenyl)-1H-1,2,3-triazol-1-yl]-α-D-galactopyranoside] was 250 nM; that for `COc1ccc(Cl)cc1S[C@H]1OC(CO)[C@H](O)[C@H](n2cc(-c3cc(F)c(F)c(F)c3)nn2)C1O` (stereo partly drawn) [Example 65, 5-Chloro-2-methoxyphenyl 3-deoxy-1-thio-3-[4-(3,4,5-trifluorophenyl)-1H-1,2,3-triazol-1-yl]-α-D-galactopyranoside] was 84 nM; that for `OC[C@H]1O[C@H](Sc2ccc(F)c(Br)c2)[C@H](O)[C@@H](n2cc(-c3cc(F)c(F)c(F)c3)nn2)[C@H]1O` [Example 60, 3-Bromo-4-fluorophenyl 3-deoxy-3-[4-(3,4,5-trifluorophenyl)-1H-1,2,3-triazol-1-yl]-1-thio-α-D-galactopyranoside] was 24 nM.
As to `OC[C@H]1O[C@H](Sc2cccc(OC(F)(F)F)c2)[C@H](O)[C@@H](n2cc(-c3cc(F)c(F)c(F)c3)nn2)[C@H]1O` [Example 20, 3-(Trifluoromethoxy)phenyl 3-deoxy-3-[4-(3,4,5-trifluorophenyl)-1H-1,2,3-triazol-1-yl]-1-thio-α-D-galactopyranoside], the affinity, expressed as Kd, was 500 nM.
In the case of `O=S(=O)(c1ccc(Cl)c(Cl)c1)[C@H]1O[C@H](CO)[C@H](O)[C@H](n2cc(-c3cc(F)c(F)c(F)c3)nn2)[C@H]1O` [Example 25, 3,4-Dichlorophenyl 3-deoxy-3-[4-(3,4,5-trifluorophenyl)-1H-1,2,3-triazol-1-yl]-α-D-galactopyranosyl sulfone], the Kd was 62 nM.
To `OC[C@H]1O[C@H](Sc2cccc(Cl)c2Cl)[C@H](O)[C@@H](n2cc(-c3cc(F)c(F)c(F)c3)nn2)[C@H]1O` [Example 8, 2,3-Dichlorophenyl 3-deoxy-3-[4-(3,4,5-trifluorophenyl)-1H-1,2,3-triazol-1-yl]-1-thio-α-D-galactopyranoside] belongs 530 nM; to `OC[C@H]1O[C@H](Sc2ccc(F)cc2)[C@H](O)[C@@H](n2cc(-c3cc(F)c(F)c(F)c3)nn2)[C@H]1O` [Example 30, 4-Fluorophenyl 3-deoxy-3-[4-(3,4,5-trifluorophenyl)-1H-1,2,3-triazol-1-yl]-1-thio-α-D-galactopyranoside], 270 nM; to `OCC1O[C@H](SCc2ccccc2)C(O)[C@@H](n2cc(-c3cc(F)c(F)c(F)c3)nn2)[C@H]1O` (stereo partly drawn) [Example 10, Benzyl 3-deoxy-1-thio-3-[4-(3,4,5-trifluorophenyl)-1H-1,2,3-triazol-1-yl]-1-thio-α-D-galactopyranoside], 1130 nM.
The value for `OCC1O[C@H](Sc2cccc3ccccc23)C(O)[C@@H](n2cc(-c3cc(F)c(F)c(F)c3)nn2)[C@H]1O` (stereo partly drawn) [Example 18, 1-Naphthyl 3-deoxy-1-thio-3-[4-(3,4,5-trifluorophenyl)-1H-1,2,3-triazol-1-yl]-1-thio-α-D-galactopyranoside] was 960 nM; that for `OCC1O[C@H](SC2CCCC(F)(F)C2)C(O)[C@@H](n2cc(-c3cc(F)c(F)c(F)c3)nn2)[C@H]1O` (stereo partly drawn) [Example 76, 3,3′-difluoro-cyklohexyl 3-deoxy-3-[4-(3,4,5-trifluorophenyl)-1H-1,2,3-triazol-1-yl]-1-thio-α-D-galactopyranoside] was 240 nM.
